Four compounds from patent US10051857B2, “Formulation component” (SYNGENTA LIMITED, priority 2011, dated 2018) can be followed below.

What all share (type): in vivo
Experiment [1] concerns Alopecurus myosuroides (ALOMY). As to the kind of experiment: Glasshouse adjuvant test with pinoxaden (Example 8). As to conditions: pinoxaden 7.5 or 15 g/ha, adjuvant 0.2% v/v or none, 200 l/ha; growth stage 13; mean over two rates, three replicates, 14 and 21 days. The method, then: (§1) The adjuvant shown in example 1 was tested in a glasshouse against four weed species in combination with the herbicide pinoxaden. A 20% w/w stock emulsion of compound 1 was prepared additionally containing 2% w/w Gohsenol® GL03 and 2% w/w Pluronic® PE10500 as surfactants. Using this, an agrochemical composition was prepared containing 0.2% v/v of the adjuvant in a track sprayer and was applied at a volume of 200 liters per hectare. Pinoxaden was applied at either 7.5 or 15 grams of pesticide per hectare on each of the weed species. The weed species and their growth stage at spraying were Alopecurus myosuroides (ALOMY; growth stage 13), Avena fatua (AVEFA; growth stage 12); Lolium perenne (LOLPE; growth stage 13), Setaria viridis (SETVI; growth stage 14).
(§2) Each spray test was replicated three times. The efficacy of the herbicide was assessed visually and expressed as a percentage of the leaf area killed. Samples were assessed at time periods of 14 and 21 days following application. The results shown in Table 8 are mean averages over the two rates of pinoxaden, three replicates and the two assessment timings, and are compared to the efficacy of pinoxaden in the absence of adjuvant.

Another experiment relates to Avena fatua (AVEFA). Described as above. As to conditions: pinoxaden 7.5 or 15 g/ha, adjuvant 0.2% v/v or none, 200 l/ha; growth stage 12; mean over two rates, three replicates, 14 and 21 days. The method, then:
as §1, §2

The subject of a further experiment is Lolium perenne (LOLPE). The experiment is described as above. The conditions noted are these: pinoxaden 7.5 or 15 g/ha, adjuvant 0.2% v/v or none, 200 l/ha; growth stage 13; mean over two rates, three replicates, 14 and 21 days. The method, then: as §1, §2
In experiment [2] the test system is Setaria viridis (SETVI). Described as above. As to conditions: pinoxaden 7.5 or 15 g/ha, adjuvant 0.2% v/v or none, 200 l/ha; growth stage 14; mean over two rates, three replicates, 14 and 21 days. The method, then: as §1, §2
Experiment [3] relates to four weed species (ALOMY, AVEFA, LOLPE, SETVI). As to the kind of experiment: Glasshouse adjuvant test with pinoxaden (Example 8), mean across species. As to conditions: pinoxaden 7.5 or 15 g/ha, adjuvant 0.2% v/v or none. The method, then: as §1, §2
Experiment [4] has as its system Abutilon theophrasti (ABUTH). Description: Glasshouse adjuvant test with fomesafen (Example 3). As to conditions: fomesafen 60 or 120 g/ha, adjuvant 0.2% v/v or none, 200 l/ha; leaf area killed; mean over two rates, six replicates, 7 and 14 days. The method, then: (§3) Compound No. 2 was tested in a glasshouse against four weed species in combination with the herbicide fomesafen. An agrochemical composition was prepared containing 0.2% v/v of the adjuvant in a track sprayer and was applied at a volume of 200 liters per hectare. Fomesafen was applied at either 60 or 120 grams of pesticide per hectare on weeds which had been grown to the 1.3 or 1.4 leaf stage. The weed species were Chenopodium album (CHEAL), Abutilon theophrasti (ABUTH), Setaria viridis (SETVI), and Xanthium strumarium (XANST).
(§4) Each spray test was replicated six times. The efficacy of the herbicide was assessed visually and expressed as a percentage of the leaf area killed. Samples were assessed at time periods of 7 and 14 days following application. The results shown in Table 3 below are mean averages over the two rates of fomesafen, six replicates and the two assessment timings, and are compared to the efficacy of fomesafen in the absence of adjuvant.

Experiment [5] has as its system Chenopodium album (CHEAL). Described as above. The conditions noted are these: fomesafen 60 or 120 g/ha, adjuvant 0.2% v/v or none, 200 l/ha; leaf area killed; mean over two rates, six replicates, 7 and 14 days. The method, then:
as §3, §4

Experiment [6] has as its system Setaria viridis (SETVI). Described as above. As to conditions: fomesafen 60 or 120 g/ha, adjuvant 0.2% v/v or none, 200 l/ha; leaf area killed; mean over two rates, six replicates, 7 and 14 days. The method, then: as §3, §4
For experiment [7], the system named is Xanthium strumarium (XANST). The experiment is described as above. As to conditions: fomesafen 60 or 120 g/ha, adjuvant 0.2% v/v or none, 200 l/ha; leaf area killed; mean over two rates, six replicates, 7 and 14 days. On the procedure:
as §3, §4

The test system of experiment [8] is four weed species (ABUTH, CHEAL, SETVI, XANST). As to the kind of experiment: Glasshouse adjuvant test with fomesafen (Example 3), mean across species. The conditions noted are these: fomesafen 60 or 120 g/ha, adjuvant 0.2% v/v or none. On the procedure:
as §3, §4

In experiment [9] the test system is Abutilon theophrasti (ABUTH). Description: Glasshouse adjuvant test with fomesafen (Example 5). As to conditions: fomesafen 60 or 120 g/ha, adjuvant 0.2% v/v or none, 200 l/ha; growth stage 12; mean over two rates, three replicates, 7, 14 and 21 days. On the procedure:
(§5) Compound 1 (N, N-diethyl-3-methylbenzamide) was tested in a glasshouse against four weed species using the herbicide fomesafen. An agrochemical composition was prepared containing 0.2% v/v of the adjuvant in a track sprayer and was applied at a volume of 200 liters per hectare. Fomesafen was applied at either 60 or 120 grams of pesticide per hectare on each of the weed species. The weed species and their growth stage at spraying were Chenopodium album (CHEAL; growth stage 13/14), Abutilon theophrasti (ABUTH; growth stage 12), Setaria viridis (SETVI; growth stage 13), and Xanthium strumarium (XANST; growth stage 12).
(§6) Each spray test was replicated three times. The efficacy of the herbicide was assessed visually and expressed as a percentage of the leaf area killed. Samples were assessed at time periods of 7, 14 and 21 days following application. The results shown in Table 5 below are mean averages over the two rates of fomesafen, three replicates and the three assessment timings, and are compared to the efficacy of fomesafen in the absence of adjuvant.

The test system of experiment [10] is Chenopodium album (CHEAL). Described as above. The conditions noted are these: fomesafen 60 or 120 g/ha, adjuvant 0.2% v/v or none, 200 l/ha; growth stage 13/14; mean over two rates, three replicates, 7, 14 and 21 days. On the procedure:
as §5, §6

Experiment [11] has as its system Setaria viridis (SETVI). Described as above. The conditions noted are these: fomesafen 60 or 120 g/ha, adjuvant 0.2% v/v or none, 200 l/ha; growth stage 13; mean over two rates, three replicates, 7, 14 and 21 days. The method, then: as §5, §6
The test system of experiment [12] is Xanthium strumarium (XANST). Described as above. As to conditions: fomesafen 60 or 120 g/ha, adjuvant 0.2% v/v or none, 200 l/ha; growth stage 12; mean over two rates, three replicates, 7, 14 and 21 days. On the procedure: as §5, §6
Experiment [13] deals with four weed species (CHEAL, ABUTH, SETVI, XANST). As to the kind of experiment: Glasshouse adjuvant test with fomesafen (Example 5), mean across species. The conditions noted are these: fomesafen 60 or 120 g/ha, adjuvant 0.2% v/v or none. On the procedure: as §5, §6
The test system of experiment [14] is Amaranthus tuberculatus (AMATE). Description: Glasshouse adjuvant test with mesotrione (Example 6). The conditions noted are these: mesotrione 45 or 90 g/ha, adjuvant 0.2% v/v or none, 200 l/ha; growth stage 13/14; mean over two rates, three replicates, 7, 14 and 21 days. The method, then: (§7) Compound 1 was tested in a glasshouse against four weed species using the herbicide mesotrione. A 20% w/w stock emulsion of compound 1 was prepared additionally containing 2% w/w Gohsenol® GL03 and 2% w/w Pluronic® PE10500 as surfactants. Using this, an agrochemical composition was prepared containing 0.2% v/v of the adjuvant in a track sprayer and was applied at a volume of 200 liters per hectare. Mesotrione was applied at either 45 or 90 grams of pesticide per hectare on each of the weed species. The weed species and their growth stage at spraying were Amaranthus tuberculatus (AMATE; growth stage 13/14), Brachiaria decumbens (BRADE; growth stage 13/14), Digitaria sanguinalis (DIGSA; growth stage 14), and Polygonum convolvulus (POLCO; growth stage 11/11.5).
(§8) Each test was replicated three times. The efficacy of the herbicide was assessed visually and expressed as a percentage of the leaf area killed. Samples were assessed at time periods of 7, 14 and 21 days following application. The results shown in Table 6 below are mean averages over the two rates of mesotrione, three replicates and the three assessment timings, and are compared to the efficacy of mesotrione in absence of adjuvant.

Experiment [15] has as its system Brachiaria decumbens (BRADE). The experiment is described as above. As to conditions: mesotrione 45 or 90 g/ha, adjuvant 0.2% v/v or none, 200 l/ha; growth stage 13/14; mean over two rates, three replicates, 7, 14 and 21 days. The method, then: as §7, §8
In experiment [16] the test system is Digitaria sanguinalis (DIGSA). Described as above. The conditions noted are these: mesotrione 45 or 90 g/ha, adjuvant 0.2% v/v or none, 200 l/ha; growth stage 14; mean over two rates, three replicates, 7, 14 and 21 days. The method, then: as §7, §8
The test system of experiment [17] is Polygonum convolvulus (POLCO). The experiment is described as above. As to conditions: mesotrione 45 or 90 g/ha, adjuvant 0.2% v/v or none, 200 l/ha; growth stage 11/11.5; mean over two rates, three replicates, 7, 14 and 21 days. The method, then:
as §7, §8

The test system of experiment [18] is four weed species (AMATE, BRADE, DIGSA, POLCO). As to the kind of experiment: Glasshouse adjuvant test with mesotrione (Example 6), mean across species. The conditions noted are these: mesotrione 45 or 90 g/ha, adjuvant 0.2% v/v or none.
Experiment [19] deals with Abutilon theophrasti (ABUTH). As to the kind of experiment: Glasshouse adjuvant test with nicosulfuron (Example 7). As to conditions: nicosulfuron 30 or 60 g/ha, adjuvant 0.2% v/v or none, 200 l/ha; growth stage 13; mean over two rates, three replicates, 14 and 21 days. On the procedure: (§9) Compound 1 was tested in a glasshouse against four weed species using the herbicide nicosulfuron. A 20% w/w stock emulsion of compound 1 was prepared additionally containing 2% w/w Gohsenol® GL03 and 2% w/w Pluronic® PE10500 as surfactants. Using this, an agrochemical composition was prepared containing 0.2% v/v of the adjuvant in a track sprayer and was applied at a volume of 200 liters per hectare. Nicosulfuron was applied at either 30 or 60 grams of pesticide per hectare on each of the weed species. The weed species and their growth stage at spraying were Abutilon theophrasti (ABUTH; growth stage 13), Chenopodium album (CHEAL; growth stage 14), Digitaria sanguinalis (DIGSA; growth stage 13), and Setaria viridis (SETVI; growth stage 13).
(§10) Each spray test replicated three times. The efficacy of the herbicide was assessed visually and expressed as a percentage of the leaf area killed. Samples were assessed at time periods of 14 and 21 days following application. The results shown in Table 7 below are mean averages over the two rates of nicosulfuron, three replicates and the two assessment timings, and are compared to the efficacy of nicosulfuron in the absence of an adjuvant.

Experiment [20] has as its system Chenopodium album (CHEAL). Described as above. As to conditions: nicosulfuron 30 or 60 g/ha, adjuvant 0.2% v/v or none, 200 l/ha; growth stage 14; mean over two rates, three replicates, 14 and 21 days. The method, then:
as §9, §10

Experiment [21] concerns Digitaria sanguinalis (DIGSA). The experiment is described as above. As to conditions: nicosulfuron 30 or 60 g/ha, adjuvant 0.2% v/v or none, 200 l/ha; growth stage 13; mean over two rates, three replicates, 14 and 21 days. The method, then:
as §9, §10

Experiment [22] deals with Setaria viridis (SETVI). The description is as above. As to conditions: nicosulfuron 30 or 60 g/ha, adjuvant 0.2% v/v or none, 200 l/ha; growth stage 13; mean over two rates, three replicates, 14 and 21 days. On the procedure:
as §9, §10

Experiment [23] concerns four weed species (ABUTH, CHEAL, DIGSA, SETVI). As to the kind of experiment: Glasshouse adjuvant test with nicosulfuron (Example 7), mean across species. As to conditions: nicosulfuron 30 or 60 g/ha, adjuvant 0.2% v/v or none. The method, then: as §9, §10

On to `CCc1cc(C)cc(CC)c1-c1c(OC(=O)C(C)(C)C)n2n(c1=O)CCOCC2` [Pinoxaden, pinoxaden, reference compound], for which the “Mean percentage kill ALOMY” value in experiment [1] was determined as 21.2%. In addition, the “Mean percentage kill AVEFA” value in the experiment with Avena fatua (AVEFA) was determined as 20.8%. The “Mean percentage kill LOLPE” value in the experiment with Lolium perenne (LOLPE) came to 12.5%. Moreover, the “Mean percentage kill SETVI” value with Setaria viridis (SETVI) [2] came to 15%. Moreover, the “Mean percentage kill, Mean across species” value in experiment [3] is recorded as 17.4%.

Take `CS(=O)(=O)NC(=O)c1cc(Oc2ccc(C(F)(F)F)cc2Cl)ccc1[N+](=O)[O-]` [fomesafen, reference compound]: the figures for the “Mean percentage kill ABUTH” value in experiment [4] and in experiment [9] were 60.8% and 20%, respectively. Besides, the entries for the “Mean percentage kill CHEAL” value in experiment [5] and in experiment [10] were 43.3% and 77.5%, respectively. The “Mean percentage kill SETVI” value is 38.2% with Setaria viridis (SETVI) [6] and 10.6% with Setaria viridis (SETVI) [11]. The “Mean percentage kill XANST” value is recorded as 45.8% in [7] and 42.8% in experiment [12]. Besides, the results for the “Mean percentage kill, Mean across species” value in [8] and in experiment [13] were 47.0% and 37.7%, respectively.

For the compound `CS(=O)(=O)c1ccc(C(=O)C2C(=O)CCCC2=O)c([N+](=O)[O-])c1` [mesotrione, reference compound], the “Mean percentage kill AMATE” value in experiment [14] is given as 65.6%. For the same compound, the “Mean percentage kill BRADE” value in experiment [15] stood at 26.7%. Besides, the “Mean percentage kill DIGSA” value in [16] came to 23%. The “Mean percentage kill POLCO” value in [17] was found to be 73.3%. For the same compound, the “Mean percentage kill, Mean across species” value in experiment [18] is reported as 47.1%.

Turning to `COc1cc(OC)nc(NC(=O)NS(=O)(=O)c2ncccc2C(=O)N(C)C)n1` [nicosulfuron, reference compound], the “Mean percentage kill ABUTH” value in [19] was determined as 69.2%. The “Mean percentage kill CHEAL” value in experiment [20] is reported as 50.8%. In addition, the “Mean percentage kill DIGSA” value in experiment [21] was found to be 87.9%. In addition, the “Mean percentage kill SETVI” value with Setaria viridis (SETVI) [22] was 92%. Also, in experiment [23], the “Mean percentage kill, Mean across species” value was 75%.
